In patent publication US20110045101A1, “FUNGICIDAL SUBSTITUTED AZOLES” (E.I. Du Pont De Nemours and Company, priority 2009, published 2011):
Marks after values point to notes of the source that are not given here.

Columns and labels:
Assay type in all cases: in vivo
Conditions in all cases: 100 = 100% disease control
[1] = tested on: Botrytis cinerea; test: Test C: tomato Botrytis on tomato seedlings, sprayed the day before inoculation, visual disease rating
How it was run: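 Rate: 200 ppm sprayed to run-off, corresponding to 500 g/ha; flagged values used 40 ppm. Vehicle was aqueous acetone (1:1) plus 250 ppm surfactant, compounds predissolved in acetone at 3% of volume. Plants were tomato seedlings.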

[2] = tested on: Septoria tritici; test: Test G: wheat leaf blotch on wheat seedlings, sprayed the day before inoculation, visual disease rating
How it was run: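 Visual disease ratings taken 19 days after transfer to a 20° C growth chamber, following 48 h in saturated atmosphere at 24° C. Seedlings had been sprayed to run-off one day before spore inoculation. Dose 200 ppm, or 40 ppm where starred.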

[3] = tested on: Puccinia recondita f. sp. tritici; test: Test I: wheat leaf rust on wheat seedlings, sprayed the day before inoculation, visual disease rating
How it was run: (§1)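 Plants received a run-off spray at 200 ppm (equivalent to 500 g/ha) or, for starred values, 40 ppm. Formulation used acetone at 3% of volume in a 50/50 acetone/water mix carrying 250 ppm Trem® 014.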

[4] = tested on: Alternaria solani; test: Test D: tomato early blight, sprayed the day before inoculation, visual disease rating
How it was run: as §1

[5] = tested on: Septoria nodorum; test: Test F: wheat glume blotch on wheat seedlings, sprayed the day before inoculation, visual disease rating
How it was run: as §1

[6] = tested on: Erysiphe graminis f. sp. tritici; test: Test J: wheat powdery mildew on wheat seedlings, sprayed the day before inoculation, visual disease rating
How it was run: as §1

[7] = tested on: Puccinia recondita f. sp. tritici; test: Test H: wheat leaf rust, test suspension sprayed after inoculation of wheat seedlings, visual disease rating
From the text: General protocol for preparing test suspensions for Tests A-J: The test compounds were first dissolved in acetone in an amount equal to 3% of the final volume and then suspended at the desired concentration (in ppm) in acetone and purified water (50/50 mix) containing 250 ppm of the surfactant Trem® 014 (polyhydric alcohol esters). The resulting test suspensions were then used in tests A-J. Spraying a 200 ppm test suspension to the point of run-off on the test plants was the equivalent of a rate of 500 g/ha. […] Wheat seedlings were inoculated with a spore suspension of Puccinia recondita f. sp. tritici (the causal agent of wheat leaf rust) and incubated in a saturated atmosphere at 20° C. for 24 h, and then moved to a growth chamber at 20° C. for 2 days. […] A dash (-) indicates no test results. All results are for 200 ppm except where followed by “*”, which indicates 40 ppm.

[8] = 200 ppm, 0 = no control relative to controls
[9] = 40 ppm (marked *), 0 = no control

COc1cc(F)c(-c2c(Cl)nc(Cl)n2Cc2ccc(C)cc2)c(F)c1 [compound 291]
Test C disease control rating ([1]; 200 ppm, 0 = no control): 99% | Test G disease control rating ([2]; 200 ppm, 0 = no control): 94% | Test I disease control rating ([3]; 200 ppm, 0 = no control): 98% | Test D disease control rating ([4]; 200 ppm, 0 = no control): 80% | Test F disease control rating ([5]; 200 ppm, 0 = no control): 0% | Test J disease control rating ([6]; 200 ppm, 0 = no control): 94% | Test H disease control rating ([7]; 200 ppm, 0 = no control): 6%

COc1cc(F)c(-c2c(Cl)nc(Br)n2Cc2ccc(C)cc2)c(F)c1 [compound 292]
Test C disease control rating ([1]; 200 ppm, 0 = no control): 99% | Test G disease control rating ([2]; 200 ppm, 0 = no control): 93% | Test I disease control rating ([3]; 200 ppm, 0 = no control): 99% | Test D disease control rating ([4]; 200 ppm, 0 = no control): 98% | Test F disease control rating ([5]; 200 ppm, 0 = no control): 69% | Test J disease control rating ([6]; 200 ppm, 0 = no control): 99% | Test H disease control rating ([7]; 200 ppm, 0 = no control): 11%

Cc1nc(Cl)c(Cc2c(F)cc(F)cc2F)n1-c1cc(Cl)cc(Cl)c1 [compound 540]
Test C disease control rating [1, 8]: 15% | Test G disease control rating [2, 8]: 3% | Test I disease control rating [3, 8]: 0% | Test D disease control rating [4, 8]: 0% | Test F disease control rating [5, 8]: 0% | Test J disease control rating [6, 8]: 21% | Test H disease control rating [7, 8]: 0%

COc1nn(C)c(-c2ccc(F)cc2Cl)c1-c1ccc(I)cc1 [compound 432]
Test C disease control rating [1, 8]: 33% | Test G disease control rating [2, 8]: 25% | Test I disease control rating [3, 8]: 0% | Test D disease control rating [4, 8]: 0% | Test F disease control rating [5, 8]: 0% | Test J disease control rating [6, 8]: 0% | Test H disease control rating [7, 8]: 0%

COc1cc(F)c(-n2c(Cl)nc(CCl)c2-c2cccc(F)c2)c(F)c1 [compound 712]
Test C disease control rating ([1]; 40 ppm (marked *)): 100* % | Test G disease control rating [2, 8]: 95% | Test I disease control rating ([3]; 40 ppm (marked *)): 86* % | Test D disease control rating ([4]; 40 ppm (marked *)): 57* % | Test F disease control rating ([5]; 40 ppm (marked *)): 0* % | Test J disease control rating ([6]; 40 ppm (marked *)): 61* % | Test H disease control rating ([7]; 40 ppm (marked *)): 7* %

COc1cc(F)c(-c2c(Br)nn(C)c2-c2ccc(Cl)cc2)c(F)c1 [compound 424]
Test C disease control rating [1, 8]: 100% | Test G disease control rating [2, 8]: 100% | Test I disease control rating [3, 8]: 94% | Test D disease control rating [4, 8]: 100% | Test F disease control rating [5, 8]: 99% | Test J disease control rating [6, 8]: 100% | Test H disease control rating [7, 8]: 0%

COc1ccc(F)c(-c2c(Cl)nc(Br)n2-c2ccc(Cl)c(F)c2)c1F [compound 317]
Test C disease control rating [1, 8]: 100% | Test G disease control rating [2, 8]: 95% | Test I disease control rating [3, 8]: 99% | Test D disease control rating [4, 8]: 100% | Test F disease control rating [5, 8]: 100% | Test J disease control rating [6, 8]: 100% | Test H disease control rating [7, 8]: 17%

COc1cc(OC)cc(-n2c(Cl)nc(C)c2-c2c(F)cc(OC)cc2F)c1 [Compound 694, 2-chloro-5-(2,6-difluoro-4-methoxyphenyl)-1-(3,5-dimethoxyphenyl)-4-methyl-1H-imidazole]
pest or weed control at 40 ppm ([1]; Botrytis cinerea, 120 h, 40 ppm (marked *)): 100% | pest or weed control at 40 ppm ([2]; Zymoseptoria tritici, 504 h, 40 ppm (marked *)): 98% | pest or weed control at 40 ppm ([3]; Puccinia recondita, 168 h, 40 ppm (marked *)): 99% | pest or weed control at 40 ppm ([4]; Alternaria solani, 168 h, 40 ppm (marked *)): 100% | pest or weed control at 40 ppm ([5]; Parastagonospora nodorum, 264 h, 40 ppm (marked *)): 99% | pest or weed control at 40 ppm ([6]; Blumeria graminis, 168 h, 40 ppm (marked *)): 98% | pest or weed control at 40 ppm ([7]; Puccinia recondita, 96 h, 40 ppm (marked *)): 0%

COc1cc(F)c(-c2c(Cl)nc(Cl)n2Cc2ccc(Cl)nc2)c(F)c1 [compound 667]
Test C disease control rating [1, 8]: 100% | Test G disease control rating [2, 8]: 99% | Test I disease control rating [3, 8]: 97% | Test D disease control rating [4, 8]: 100% | Test F disease control rating [5, 8]: 100% | Test J disease control rating [6, 8]: 76% | Test H disease control rating [7, 8]: 8%

CCc1nc(C)n(-c2ccc(Cl)cc2)c1-c1c(F)cccc1F [compound 305]
Test C disease control rating [1, 9]: 63* % | Test G disease control rating [2, 9]: 23* % | Test I disease control rating [3, 9]: 0* % | Test D disease control rating [4, 9]: 0* % | Test F disease control rating [5, 9]: 0* % | Test J disease control rating [6, 9]: 0* % | Test H disease control rating [7, 9]: 11* %

COc1cc(F)c(-c2c(Cl)nc(Cl)n2-c2ccc(C)c(I)c2)c(F)c1 [compound 647]
Test C disease control rating ([1]; 40 ppm (marked *)): 0* % | Test G disease control rating [2, 8]: 95% | Test I disease control rating ([3]; 40 ppm (marked *)): 0* % | Test D disease control rating ([4]; 40 ppm (marked *)): 0* % | Test F disease control rating ([5]; 40 ppm (marked *)): 0* % | Test J disease control rating ([6]; 40 ppm (marked *)): 69* % | Test H disease control rating ([7]; 40 ppm (marked *)): 0* %

Cc1nc(C)n(-c2ccc(Cl)cc2)c1-c1c(F)cc(F)cc1F [compound 45]
Test C disease control rating [1, 8]: 100% | Test I disease control rating [3, 8]: 100% | Test D disease control rating [4, 8]: 98% | Test F disease control rating [5, 8]: 100% | Test J disease control rating [6, 8]: 100% | Test H disease control rating [7, 8]: 99%

Cc1nn(C)c(Cc2ccc(F)cc2)c1-c1ccc(F)cc1Cl [compound 312]
Test C disease control rating [1, 8]: 99% | Test I disease control rating [3, 8]: 99% | Test D disease control rating [4, 8]: 82% | Test F disease control rating [5, 8]: 0% | Test J disease control rating [6, 8]: 92% | Test H disease control rating [7, 8]: 9%

COc1cc(F)c(-c2c(Cl)nc(C)n2-c2ccc(SC#N)cc2)c(F)c1 [Compound 741, 4-[4-chloro-5-(2,6-difluoro-4-methoxyphenyl)-2-methyl-1H-1-yl]phenyl thiocyanate]
Test C disease control rating [1, 8]: 100% | Test I disease control rating [3, 8]: 99% | Test D disease control rating [4, 8]: 99% | Test F disease control rating [5, 8]: 92% | Test J disease control rating [6, 8]: 72% | Test H disease control rating [7, 8]: 0%

Fc1cc(F)c(-c2c(Cl)nc(Cl)n2-c2cccc(OC(F)F)c2)c(F)c1 [compound 597]
Test C disease control rating [1, 8]: 100% | Test G disease control rating [2, 8]: 98% | Test D disease control rating [4, 8]: 100% | Test F disease control rating [5, 8]: 97% | Test J disease control rating [6, 8]: 100% | Test H disease control rating [7, 8]: 99%

Cc1nn(C)c(Cc2ccc(F)cc2F)c1-c1ccc(F)cc1Cl [Compound 313, 4-(2-chloro-4-fluorophenyl)-5-[(2,4-difluorophenyl)methyl]-1,3-dimethyl-1H-pyrazole]
pest or weed control at 200 ppm ([1]; Botrytis cinerea, 120 h, 200 ppm, 0 = no control relative to controls): 99% | pest or weed control at 200 ppm ([3]; Puccinia recondita, 168 h, 200 ppm, 0 = no control relative to controls): 100% | pest or weed control at 200 ppm ([4]; Alternaria solani, 168 h, 200 ppm, 0 = no control relative to controls): 100% | pest or weed control at 200 ppm ([5]; Parastagonospora nodorum, 264 h, 200 ppm, 0 = no control relative to controls): 0% | pest or weed control at 200 ppm ([6]; Blumeria graminis, 168 h, 200 ppm, 0 = no control relative to controls): 99% | pest or weed control at 200 ppm ([7]; Puccinia recondita, 96 h, 200 ppm, 0 = no control relative to controls): 95%

Cc1nn(C)c(Cc2cccc(F)c2)c1-c1ccc(F)cc1Cl [compound 311]
Test C disease control rating [1, 8]: 98% | Test I disease control rating [3, 8]: 99% | Test D disease control rating [4, 8]: 9% | Test F disease control rating [5, 8]: 0% | Test J disease control rating [6, 8]: 95% | Test H disease control rating [7, 8]: 100%

Cc1ncn(-c2c(F)cc(F)cc2F)c1-c1ccc(Cl)cc1 [compound 447]
Test C disease control rating [1, 8]: 94% | Test G disease control rating [2, 8]: 30% | Test I disease control rating [3, 8]: 0% | Test D disease control rating [4, 8]: 80% | Test F disease control rating [5, 8]: 0% | Test J disease control rating [6, 8]: 81%

Cc1nc(Cl)c(-c2c(F)cccc2F)n1Cc1cccc(Cl)c1 [compound 126]
Test C disease control rating [1, 8]: 97% | Test G disease control rating [2, 8]: 96% | Test I disease control rating [3, 8]: 99% | Test D disease control rating [4, 8]: 99% | Test F disease control rating [5, 8]: 69% | Test J disease control rating [6, 8]: 99%

Cc1ccc(-n2c(Cl)nc(Cl)c2-c2c(F)ccc(F)c2F)cc1 [compound 130]
Test C disease control rating [1, 8]: 98% | Test G disease control rating [2, 8]: 85% | Test I disease control rating [3, 8]: 99% | Test D disease control rating [4, 8]: 100% | Test F disease control rating [5, 8]: 0% | Test J disease control rating [6, 8]: 96%

COc1ccc(F)c(-c2c(Cl)ncn2-c2ccc(I)cc2)c1F [compound 448]
Test C disease control rating [1, 8]: 97% | Test G disease control rating [2, 8]: 98% | Test I disease control rating [3, 8]: 95% | Test D disease control rating [4, 8]: 100% | Test F disease control rating [5, 8]: 89% | Test J disease control rating [6, 8]: 98%
